Biological target: T1, Enoyl-[acyl-carrier-protein] reductase [NADPH] FabI (Staphylococcus aureus (strain MRSA252), UniProt Q6GI75)
T1 sequence (Q6GI75 whole entry): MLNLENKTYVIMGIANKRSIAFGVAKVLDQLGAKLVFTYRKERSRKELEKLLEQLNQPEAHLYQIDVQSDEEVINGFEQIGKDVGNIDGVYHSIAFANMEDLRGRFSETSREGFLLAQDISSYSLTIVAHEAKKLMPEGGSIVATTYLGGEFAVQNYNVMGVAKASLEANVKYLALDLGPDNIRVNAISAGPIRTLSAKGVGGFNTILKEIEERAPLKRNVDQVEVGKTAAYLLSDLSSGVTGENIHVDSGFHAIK
Assay: Thermal Shift Assay
Conditions: pH 7.5
Method: ThermoFluor experiments were carried out in 96-well plates (Concord) using the CFX96 RealTime PCR Detection system and C1000 Thermal Cycler (BioRad).

Compound: CCCCCCc1ccc(Oc2ccccc2N)c(O)c1
- Ki: 0.12 nM

Compound: Oc1ccccc1Oc1ccccc1 [2-phenoxylphenol]
- Ki: 18.9 nM

Compound: CCCCCCCCc1ccc(Oc2ccccc2)c(O)c1 [5-Octyl-2-phenoxy-phenol]
- Ki: 0.82 nM

Compound: Oc1cc(Br)ccc1Oc1ccccc1 [5-bromo-2-phenoxylphenol]
- Ki: 0.06 nM

Compound: CCCCCCc1ccc(Oc2ccccc2)c(O)c1 [5-hexyl-2-phenoxyphenol]
- Ki: 0.01 nM

Compound: CCCCCc1ccc(Oc2ccccc2)c(O)c1 [5-pentyl-2-phenoxylphenol]
- Ki: 0.04 nM

Compound: CCCc1ccc(Oc2ccccc2)c(O)c1 [PT02]
- Ki: 0.07 nM

Compound: Cc1ccc(Oc2ccccc2)c(O)c1 [PT53]
- Ki: 0.38 nM

Compound: Oc1cc(F)ccc1Oc1ccccc1 [PT55]
- Ki: 1.42 nM

Compound: C=CCc1ccc(Oc2ccccc2)c(O)c1 [PT68]
- Ki: 0.11 nM

Compound: Oc1cc(Cc2ccccc2)ccc1Oc1ccccc1 [PT89]
- Ki: 0.1 nM

Compound: Cc1ccccc1Oc1ccc(CCc2ccccc2)cc1O [PT162]
- Ki: 0.5 nM

Compound: N#Cc1ccccc1Oc1ccc(Br)cc1O [PT443]
- Ki: 0.05 nM

Compound: N#Cc1ccccc1Oc1ccc(F)cc1O [PT446]
- Ki: 1.01 nM

— BindingDB's records for doi:10.1021/bi400413c (Stony Brook University, 2013)
